In patent US12502400B2, “Method of preventing of systemic-to-pulmonary-artery shunt thrombosis” (Chiesi Farmaceutici S.p.A., priority 2017, dated 2025):
Where two headings read alike, the source gives them in different places.

Experiments:
[1] = tested on: human platelet thrombus formation; test: Human platelet thrombus formation in laser-injured arterioles of avatar mice; format: in vivo, VWFHA1 mutant mice; settings: for platelet accumulation at sites of arteriole injury: platelets from neonates and older pediatric CHD patients; for Contrast estimate (mean difference in thrombus size pre- and post-administration): linear mixed model
Experimental: Administration of anesthesia, insertion of venous and arterial catheters, fluorescent labeling of human platelets, and surgical preparation of the cremaster muscle in 12 week old male VWF HA1 mice have been previously described.
Human platelets (700K/μL) were continuously infused (25 μl/min) through a catheter placed in the ipsilateral femoral artery 2 min prior to and during laser-induced injury to ensure a level of circulating cells equivalent to humans.^33 Injury to the vessel wall of arterioles (40-65 μm diameter) was performed with a pulsed nitrogen dye laser applied through a 20× water-immersion Olympus objective. Human platelet-vessel wall interactions were visualized by fluorescence microscopy using a system equipped with a Yokogawa CSU-22 spinning disk confocal scanner, iXON EM camera, and 488-nm laser line (Revolution XD, Andor Technology, South Windsor, CT) to detect Calcein-AM-labeled cells, respectively. The extent of thrombus formation was assessed for 3 min after injury and the maximal area (μm^2) of coverage determined by off-line analysis (ImagePro Plus, Media Cybernetics, Bethesda, MD).
A minimum of 5 mice per patient group were studied (2 and 4 arterial segments pre and post-cangrelor per mouse, respectively).
To compare mean thrombus areas between different treatment groups, we fit linear mixed models with random intercepts for each study animal. Linear mixed models permit comparison of mean differences between treatment groups while also considering the effect of the clustering of the data on the SEs resulting from multiple measurements obtained from each mouse used in intravital studies. In the case of platelet aggregation studies, values are presented as mean±SEM. A 2-tailed Student t test was used for comparisons between control conditions and treatments. Differences with values of P<0.05 were considered statistically significant.

[2] = molecular target: T1, integrin αIIbβ3 (Homo sapiens, UniProt P05106+P08514); test: ADP-induced firm adhesion of platelets to surface-immobilized VWF in flow; format: cell-based; settings: platelets from pediatric CHD patients or healthy adults
T1 construct: the platelet integrin receptor αIIbβ3 that stabilizes adhesion by engaging with ligands such as VWF; endogenous in cells; host or cells: platelets from pediatric patients with CHD or healthy adults
Experimental: A parallel-plate flow chamber was used to assess platelet accumulation on surface-immobilized plasma VWF at a wall shear rate of 1,600s-1.29, 31 In brief, a polyclonal anti-VWF antibody was absorbed overnight (4° C.) to a six-well tissue culture plate. Subsequently, the plate was washed and nonspecific interactions blocked by the addition of TBS containing 3% BSA, pH 7.4 (30 min, 37° C.). Human or murine (VWF^HA1) plasma obtained from heparinized whole blood was added and the plates placed at 37° C. for an additional hour prior to use. Citrated whole blood was then perfused over the reactive substrate for 3 minutes, followed by the addition of platelet buffer lacking CaCl2 for 1 min. The number of platelets attached per unit area was determined by offline analysis (ImagePro Plus, Media Cybernetics, Bethesda, MD) of recorded digital images. For GPIbα inhibition studies, mAb 6D1 (10 μg/ml) was added to anticoagulated human blood for 10 min before use.
Although GPIbα initiates platelet deposition at arterial shear rates, this adhesive interaction is labile in nature permitting platelets to translocate in response to forces generated by flowing blood. Ultimately it is the platelet integrin receptor αIIbβ3 that stabilizes adhesion by engaging with ligands such as VWF in response to ADP and/or thrombin.

[3] = tested on: purified platelets; test: ADP-induced platelet aggregation by light transmission aggregometry (LTA), EC50 for ADP; format: cell-based, human; settings: LTA with fibrinogen
Experimental: Purified platelets were suspended to a final concentration of 400,000/μl in platelet buffer containing 145 mM NaCl, 10 mM Hepes, 0.5 mM Na2HPO4, 5 mM KCl, 2 mM MgCl2, 1 mM CaCl2), 0.10% glucose, pH 7.4. […] Human fibrinogen (final concentration 200 μg/ml) was added to the platelet suspensions just prior to activation. Aggregation was assessed using a Chronolog Lumi-Aggregometer (model 540 VS, Chronolog, Havertown, PA) and permitted to proceed for 6 min after the addition of agonist. The results are reported as maximum percent change in light transmittance from baseline with platelet buffer used as a reference.
We next determine the functional response of platelets from neonates as well as older patients with congenital heart disease to ADP stimulation. This was accomplished by calculating EC50 values for the agonist using isolated platelets in fibrinogen-supplemented buffer.

[4] = early institution within 12 hours of surgery; cited from earlier work
[5] = tested on: platelets in PPACK-treated whole blood; test: Multichannel microfluidic device, platelet accumulation on collagen under flow; format: cell-based; settings: Homo sapiens, read-out: effective IC50 (surface fluorescence at 300 s)
Experimental: Microfluidic devices with 8 individual channels (250 μm wide×60 μm-high) were fabricated in polydimethylsiloxane (PDMS) as previously described. The device was reversibly vacuum-sealed to a glass slide with its flow channels aligned perpendicularly to a patterned type 1 collagen surface (1 mg/ml). To visualize platelet accumulation over time, an Alexa Fluor 488 conjugated, non-function blocking mouse anti-human CD61 (GPIIb/IIIa) antibody was added (1:50 ratio) 7 min prior to performing experiments (0.125 μg/ml final concentration).
Whole blood from neonates with single ventricle pathology or healthy adults was perfused over the prothrombotic surface at an initial wall shear rate of 100 s^−1 by withdrawal from a single outlet into a syringe pump (Harvard Apparatus Pump 11 Elite, Holliston, MA). Platelet accumulation was visualized (10× objective lens) using an automated inverted microscope system (DMI6000, Leica) equipped with a CCD camera (DFC365FX, Leica). A custom stage insert held three microfluidic devices allowing replicate testing of four conditions. Images were captured in 30 s intervals for a total of 5 min. Platelet fluorescence intensities, which are directly proportional to the total platelet mass were measured and analyzed with Image J software (Image J; NIH, Bethesda, MD). The center 65% of the prothrombotic region was selected for analysis to avoid edge effects. […]

[6] = adults with coronary artery disease, cited from earlier work
[7] = cited from earlier work
[8] = tested on: platelet aggregation; test: Phase 1 PK/PD clinical trial in post-operative neonates with CHD, LTA and microfluidics; format: in vivo, human; settings: infusion 0.5 or 0.25 μg/kg/min for one hour; post-operative neonates with shunt
From the text: FIG. 7. Pharmacodynamic properties of cangrelor administered to neonates with CHD in the early post-operative period. A phase 1 clinical trial is currently being conducted to assess the drug plasma levels and effects on platelet aggregation using LTA and microfluidics. […] B, microfluidic results under the same conditions as outlined for LTA.

abciximab: function blocking antibody to integrin αIIbβ3
platelet accumulation at sites of arteriole injury [1]: nearly abrogated platelet-vessel wall interactions
abrogated platelet accumulation ([1]; platelets from pediatric cardiac patients, laser-injured arterioles, P<0.0001): > 90%
firm adhesion of platelets to surface-immobilized VWF in response to ADP [2]: prevent the firm adhesion

Nc1ncnc2c1ncn2[C@@H]1O[C@H](COP(=O)(O)OP(=O)(O)O)[C@@H](O)[C@H]1O [ADP]
EC50 ([3]; platelets from CHD patients 0-28 days): 3.4 ± 0.1 µM
EC50 ([3]; platelets from CHD patients 1-10 years): 2.9 ± 0.1 µM
EC50 ([3]; platelets from CHD patients 11-18 years): 3.2 ± 0.2 µM
EC50 ([3]; platelets from healthy adults): 3.2 ± 0.2 µM

CC(=O)Oc1ccccc1C(=O)O [aspirin]
risk of shunt thrombosis and death [4]: reduced the risk of shunt thrombosis and death

CSCCNc1nc(SCCC(F)(F)F)nc2c1ncn2[C@@H]1O[C@H](COP(=O)(O)OP(=O)(O)C(Cl)(Cl)P(=O)(O)O)[C@@H](O)[C@H]1O [cangrelor]
IC50 ([5]; whole blood from healthy adults): 0.00095 µM
IC50 ([5]; whole blood from neonates with CHD (single ventricle physiology)): 0.00069 µM
Contrast estimate (mean difference in thrombus size pre- and post-administration) ([1]; platelets from adults): 3,501 μm2
Contrast estimate (mean difference in thrombus size pre- and post-administration) ([1]; platelets from age group 0-28 days): 2,261 μm2
Contrast estimate (mean difference in thrombus size pre- and post-administration) ([1]; platelets from age group 1-10 years): 3,314 μm2
Contrast estimate (mean difference in thrombus size pre- and post-administration) ([1]; platelets from age group 11-18 years): 3,475 μm2
reduced thrombus size ([1]; platelets from neonates and older CHD patients, all cases, doses recommended for PCI, P<0.0001): > 45%
platelet accumulation at sites of arteriole injury [1]: did not completely prevent platelet accumulation
reduction in thrombus size ([1]; platelets from pediatric cardiac patients, 30 μg/kg bolus then 4 μg/kg/min infusion, P<0.0001): ~45%
risk of severe bleeding ([6]; PCI): without significantly increasing the risk of severe bleeding
ischemic events during PCI [6]: significantly reduce ischemic events
restoration of hemostasis, as assessed by bleeding time ([7]; after cessation of infusion of a supratherapeutic dose): ≤ 10 min
full platelet function recovery as determined by response to ADP ([7]; after cessation of infusion): ≤ 60 min
effect on platelet aggregation assessed by LTA and microfluidics [8]: efficacy and rapid reversibility
